Data from US7956190B2, “Benzimidazole amido derivatives as kinase inhibitors” (Hoffmann-La Roche Inc., priority 2007, dated 2011).

Test system: HCT 116 cells
Assay: CellTiter-Glo Assay in HCT 116 Cells
Type: cell-based
Conditions: HCT 116 human colon carcinoma cells, 5 days (120 h) incubation, CellTiter-Glo luminescence, tested in triplicate
Excerpt: CellTiter-Glo™ Assay in HCT 116 Cells
The CellTiter-Glo™ Luminescent Cell Viability Assay (Promega) is a homogeneous method of determining the number of viable cells in culture based on quantitation of the ATP present, which signals the presence of metabolically active cells.
HCT 116 cells (human colon carcinoma, ATCC-No. CCl-247) were cultivated in RPMI 1640 medium with GlutaMAX™ I (Invitrogen, Cat-No. 61870-010), 5% Fetal Calf Serum (FCS, Sigma Cat-No. F4135 (FBS)); 100 Units/ml penicillin/100 μg/ml streptomycin (=Pen/Strep from Invitrogen Cat. No. 15140). For the assay the cells were seeded in 384 well plates, 1000 cells per well, in the same medium. The next day the test compounds were added in various concentrations ranging from 30 μM to 0.0015 μM (10 concentrations, 1:3 diluted). After 5 days the CellTiter-Glo™ assay was done according to the instructions of the manufacturer (CellTiter-Glo™ Luminescent Cell Viability Assay, from Promega). In brief: the cell-plate was equilibrated to room temperature for approximately 30 minutes and than the CellTiter-Glo™ reagent was added. The contents were carefully mixed for 15 minutes to induce cell lysis. After 45 minutes the luminescent signal was measured in Victor 2, (scanning multiwell spectrophotometer, Wallac).
• Medium: RPMI 1640 with GlutaMAX™ I (Invitrogen, Cat-Nr. 61870), 5% FCS (Sigma Cat.-No. F4135), Pen/Strep (Invitrogen, Cat No. 15140). • HCT116 (ATCC-No. CCl-247): 1000 cells in 60 μl per well of 384 well plate (Greiner 781098, μClear-plate white) • After seeding incubate plates 24 h at 37° C., 5% CO2 2nd. Day: Induction (Treatment with Compounds, 10 Concentrations):
In order to achieve a final concentration of 30 μM as highest concentration 3.5 μl of 10 mM compound stock solution were added directly to 163 μl media. Then step e) of the dilution procedure described below, was followed.

Row | Structure (SMILES) | IC50 [nM]
1 | O=C(Nc1cccc2nc(-c3c(NCc4ccccn4)cc[nH]c3=O)[nH]c12)c1ccccc1 [Example A-5, N-(2-{2-oxo-4-[(pyridin-2-ylmethyl)-amino]-1,2-dihydro-pyridin-3-yl}-3H-benzoimidazol-4-yl)-benzamide] | 1000 to 15000
2 | O=C(Nc1cccc2nc(-c3c(NC[C@@H](O)c4ccccc4)cc[nH]c3=O)[nH]c12)c1cccc(C(F)(F)F)c1 [Example B-5, N-{2-[4-((S)-2-Hydroxy-2-phenyl-ethylamino)-2-oxo-1,2-dihydro-pyridin-3-yl]-3H-benzoimidazol-4-yl}-3-trifluoromethyl-benzamide] | 1000 to 15000
3 | COCC(=O)Nc1cccc2nc(-c3c(NC[C@@H](O)c4ccccc4)cc[nH]c3=O)[nH]c12 [Example B-13, N-{2-[4-((S)-2-Hydroxy-2-phenyl-ethylamino)-2-oxo-1,2-dihydro-pyridin-3-yl]-3H-benzoimidazol-4-yl}-2-methoxy-acetamide] | 1000 to 15000
4 | O=C(Nc1cccc2nc(-c3c(NCc4ccccc4)cc[nH]c3=O)[nH]c12)c1ccccc1Cl [Example A-17, N-[2-(4-Benzylamino-2-oxo-1,2-dihydro-pyridin-3-yl)-3H-benzoimidazol-4-yl]-2-chloro-benzamide] | 1000 to 15000
5 | CC(C)(C)C(=O)Nc1cccc2nc(-c3c(NC[C@@H](O)c4ccccc4)cc[nH]c3=O)[nH]c12 [Example B-3, N-{2-[4-((S)-2-Hydroxy-2-phenyl-ethylamino)-2-oxo-1,2-dihydro-pyridin-3-yl]-3H-benzoimidazol-4-yl}-2,2-dimethyl-propionamide] | 1000 to 15000
6 | COc1ccc(C(=O)Nc2cccc3nc(-c4c(NCc5cccc(Cl)c5)cc[nH]c4=O)[nH]c23)cc1 [Example A-8, N-{2-[4-(3-Chloro-benzylamino)-2-oxo-1,2-dihydro-pyridin-3-yl]-3H-benzoimidazol-4-yl}-4-methoxy-benzamide] | 1000 to 15000
7 | O=C(Nc1cccc2nc(-c3c(NCc4ccccc4)cc[nH]c3=O)[nH]c12)c1ccccc1 [Example A-4, N-[2-(4-Benzylamino-2-oxo-1,2-dihydro-pyridin-3-yl)-3H-benzoimidazol-4-yl]-benzamide] | 1000 to 15000
8 | COc1ccc(C(=O)Nc2cccc3nc(-c4c(NCc5ccccn5)cc[nH]c4=O)[nH]c23)cc1 [Example A-6, 4-Methoxy-N-(2-{2-oxo-4-[(pyridin-2-ylmethyl)-amino]-1,2-dihydro-pyridin-3-yl}-3H-benzoimidazol-4-yl)-benzamide] | 1000 to 15000
9 | O=C(Nc1cccc2nc(-c3c(NCc4ccccn4)cc[nH]c3=O)[nH]c12)c1ccc(Cl)cc1 [Example A-7, 4-Chloro-N-(2-{2-oxo-4-[(pyridin-2-ylmethyl)-amino]-1,2-dihydro-pyridin-3-yl}-3H-benzoimidazol-4-yl)-benzamide] | 1000 to 15000
10 | N#Cc1cccc(C(=O)Nc2cccc3[nH]c(-c4c(NCc5ccccn5)cc[nH]c4=O)nc23)c1 [Example A-1, 3-Cyano-N-(2-[2-oxo-4-1 (pyridin-2-ylmethyl)-amino]-1,2-dihydro-pyridin-1H-benzoimidazol-4-yl)-benzamide] | 1360
11 | O=C(Nc1cccc2nc(-c3c(NC[C@@H](O)c4ccccc4)cc[nH]c3=O)[nH]c12)c1ccc(F)cc1 [Example A-12, 4-Fluoro-N-{2-[4-((S)-2-hydroxy-2-phenyl-ethylamino)-2-oxo-1,2-dihydro-pyridin-3-yl]-3H-benzoimidazol-4-yl}-benzamide] | 1000 to 15000
12 | N#Cc1cccc(C(=O)Nc2cccc3nc(-c4c(NC[C@@H](O)c5ccccc5)cc[nH]c4=O)[nH]c23)c1 [Example B-12, 3-Cyano-N-{2-[4-((S)-2-hydroxy-2-phenyl-ethylamino)-2-oxo-1,2-dihydro-pyridin-3-yl]-3H-benzoimidazol-4-yl}-benzamide] | 1000 to 15000
13 | COc1ccc(OC(=O)Nc2cccc3nc(-c4c(NC[C@@H](O)c5ccccc5)cc[nH]c4=O)[nH]c23)cc1 [Example C-1, {2-[4-((S)-2-Hydroxy-2-phenyl-ethylamino)-2-oxo-1,2-dihydro-pyridin-3-yl]-3H-benzoimidazol-4-yl}-carbamic acid 4-methoxy-phenyl ester] | 1000 to 15000
14 | O=C(Nc1cccc2nc(-c3c(NC[C@@H](O)c4ccccc4)cc[nH]c3=O)[nH]c12)c1ccccc1F [Example B-9, 2-Fluoro-N-{2-[4-((S)-2-hydroxy-2-phenyl-ethylamino)-2-oxo-1,2-dihydro-pyridin-3-yl]-3H-benzoimidazol-4-yl}-benzamide] | 1000 to 15000
15 | O=C(Nc1cccc2nc(-c3c(NC[C@@H](O)c4ccccc4)cc[nH]c3=O)[nH]c12)c1ccco1 [Example B-19, Furan-2-carboxylic acid {2-[4-((S)-2-hydroxy-2-phenyl-ethylamino)-2-oxo-1,2-dihydro-pyridin-3-yl]-3H-benzoimidazol-4-yl}-amide] | 1000 to 15000
16 | COc1ccc(NC(=O)Nc2cccc3nc(-c4c(NC[C@@H](O)c5ccccc5)cc[nH]c4=O)[nH]c23)cc1 [Example D-2, 1-{2-[4-((S)-2-Hydroxy-2-phenyl-ethylamino)-2-oxo-1,2-dihydro-pyridin-3-yl]-3H-benzoimidazol-4-yl}-3-(4-methoxy-phenyl)-urea] | 1000 to 15000
